From ChEMBL document CHEMBL5058541, “EUbOPEN Chemogenomics Library 2 (NanoBRET)” (2022)

How the values were obtained:
[1] = target: T1, Protein ENL (Homo sapiens) (UniProt Q03111); test: Thermal Shift Assay. Domain: start/stop M1-A148; details: Compound concentration 25.0 uM, Protein concentration 2.0 uM
T1 sequence (whole entry): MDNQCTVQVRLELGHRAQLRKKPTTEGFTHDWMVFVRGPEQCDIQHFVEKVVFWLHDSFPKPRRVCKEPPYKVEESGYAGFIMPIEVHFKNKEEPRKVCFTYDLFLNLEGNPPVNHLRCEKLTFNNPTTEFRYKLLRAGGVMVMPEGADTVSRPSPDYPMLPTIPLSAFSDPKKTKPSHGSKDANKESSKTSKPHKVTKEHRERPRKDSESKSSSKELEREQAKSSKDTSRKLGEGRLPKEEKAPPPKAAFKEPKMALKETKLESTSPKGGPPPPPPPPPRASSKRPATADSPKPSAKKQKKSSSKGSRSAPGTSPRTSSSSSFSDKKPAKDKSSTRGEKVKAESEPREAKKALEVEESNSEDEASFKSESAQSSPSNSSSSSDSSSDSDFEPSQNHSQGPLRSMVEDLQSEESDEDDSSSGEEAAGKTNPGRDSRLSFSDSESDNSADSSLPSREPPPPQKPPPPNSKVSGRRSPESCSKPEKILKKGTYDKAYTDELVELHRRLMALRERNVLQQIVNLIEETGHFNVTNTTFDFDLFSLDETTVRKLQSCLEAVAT

Peregrin (Homo sapiens) = target: T2, Peregrin (Homo sapiens) (UniProt P55201); details: Compound concentration 20.0 uM, Protein concentration 2.0 uM, Result type QC Liability
T2 sequence (whole entry): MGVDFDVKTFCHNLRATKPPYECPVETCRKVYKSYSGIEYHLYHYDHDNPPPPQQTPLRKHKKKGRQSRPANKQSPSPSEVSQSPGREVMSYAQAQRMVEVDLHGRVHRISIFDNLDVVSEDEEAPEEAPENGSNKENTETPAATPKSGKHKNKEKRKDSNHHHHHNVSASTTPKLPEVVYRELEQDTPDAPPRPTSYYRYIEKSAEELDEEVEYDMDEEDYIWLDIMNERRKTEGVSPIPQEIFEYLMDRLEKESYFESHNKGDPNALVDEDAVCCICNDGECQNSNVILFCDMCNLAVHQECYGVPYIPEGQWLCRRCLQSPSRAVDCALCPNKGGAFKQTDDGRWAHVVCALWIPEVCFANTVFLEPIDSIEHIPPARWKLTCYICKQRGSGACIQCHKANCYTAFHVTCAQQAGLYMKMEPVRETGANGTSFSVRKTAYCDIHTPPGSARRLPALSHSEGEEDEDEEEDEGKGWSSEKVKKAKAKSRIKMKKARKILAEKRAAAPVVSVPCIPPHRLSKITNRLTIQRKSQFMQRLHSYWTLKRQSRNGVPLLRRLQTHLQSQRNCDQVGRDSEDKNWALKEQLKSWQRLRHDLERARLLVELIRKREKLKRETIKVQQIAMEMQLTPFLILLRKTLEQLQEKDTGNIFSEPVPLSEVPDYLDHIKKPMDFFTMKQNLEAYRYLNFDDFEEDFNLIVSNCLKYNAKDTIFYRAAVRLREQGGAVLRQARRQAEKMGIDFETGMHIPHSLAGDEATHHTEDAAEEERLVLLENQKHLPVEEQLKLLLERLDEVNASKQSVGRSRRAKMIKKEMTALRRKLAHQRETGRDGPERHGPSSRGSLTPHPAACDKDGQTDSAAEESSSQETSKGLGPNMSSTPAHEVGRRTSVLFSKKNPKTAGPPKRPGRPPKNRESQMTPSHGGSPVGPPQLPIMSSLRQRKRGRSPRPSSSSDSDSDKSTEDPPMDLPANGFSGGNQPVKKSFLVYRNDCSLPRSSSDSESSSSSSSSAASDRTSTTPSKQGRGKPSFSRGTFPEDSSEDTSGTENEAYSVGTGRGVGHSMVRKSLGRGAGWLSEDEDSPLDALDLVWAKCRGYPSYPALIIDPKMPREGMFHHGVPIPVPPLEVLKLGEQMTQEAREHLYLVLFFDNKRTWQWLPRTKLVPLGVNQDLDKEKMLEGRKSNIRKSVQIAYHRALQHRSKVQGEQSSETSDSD

[2] = target: YEATS domain-containing protein 4 (Homo sapiens) (UniProt O95619); test: Thermal Shift Assay. Domain: start/stop V16-K225; details: Compound concentration 25.0 uM, Protein concentration 2.0 uM
Sequence of YEATS domain-containing protein 4 (Homo sapiens) (O95619 whole entry, the tested form may be a part): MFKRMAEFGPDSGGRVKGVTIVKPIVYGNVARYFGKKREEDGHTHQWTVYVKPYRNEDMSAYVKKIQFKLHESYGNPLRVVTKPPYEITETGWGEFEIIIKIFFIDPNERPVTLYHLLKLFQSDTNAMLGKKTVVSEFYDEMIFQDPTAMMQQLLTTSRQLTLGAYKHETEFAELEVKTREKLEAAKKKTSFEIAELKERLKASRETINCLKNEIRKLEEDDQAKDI

[3] = target: T3, Protein AF-9 (Homo sapiens) (UniProt P42568); details: Compound concentration 25.0 uM, Protein concentration 2.0 uM
T3 sequence (whole entry): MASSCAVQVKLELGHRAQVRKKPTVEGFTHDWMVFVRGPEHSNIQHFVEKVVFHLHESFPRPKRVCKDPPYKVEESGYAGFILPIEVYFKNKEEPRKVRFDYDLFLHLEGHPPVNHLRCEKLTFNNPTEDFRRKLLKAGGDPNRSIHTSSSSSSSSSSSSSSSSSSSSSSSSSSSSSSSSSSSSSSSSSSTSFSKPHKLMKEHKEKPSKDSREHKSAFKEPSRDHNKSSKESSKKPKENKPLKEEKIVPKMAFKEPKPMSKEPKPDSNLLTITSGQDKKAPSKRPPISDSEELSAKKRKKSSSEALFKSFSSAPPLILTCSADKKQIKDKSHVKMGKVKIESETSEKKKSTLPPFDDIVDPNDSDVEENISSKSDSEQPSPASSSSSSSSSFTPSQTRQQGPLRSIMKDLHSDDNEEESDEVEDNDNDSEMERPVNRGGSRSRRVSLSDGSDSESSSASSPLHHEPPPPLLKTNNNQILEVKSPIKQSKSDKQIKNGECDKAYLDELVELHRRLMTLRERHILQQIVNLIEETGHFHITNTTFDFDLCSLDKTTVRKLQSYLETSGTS
Description: Thermal Shift Assay. Domain: start/stop M1-D141

ΔTm [1]: 3.61 c | ΔTm (Peregrin (Homo sapiens)): -0.349 c | ΔTm [2]: -0.19 c | ΔTm [3]: 5.15 c
SMILES: CN(C)C(=O)c1ccc(-c2cc(C(=O)N[C@@H]3CCc4ccccc43)no2)cc1O
